# What was measured:
# [1] = X-ray scattering of thin-film coatings (Example 10); assay type: physicochemical; settings: 95 wt% sorbitan ester / 5 wt% sodium stearate; film cast from 30 g/L aqueous solution, dried 40° C. 4 hours
# From the text: As used herein, “lamellar structure” refers to a structure comprising lamella(e) vertically stacked adjacent to each other and held together by intermolecular forces. As used herein, “lamella(e)” refers to one lamella or two or more lamellae, that is, one or more discrete layers of molecules, respectively. In some embodiments, the molecules present in the lamella(e) are ordered (e.g., aligned, as in an open bilayer). The distance between a surface of a lamella and a surface of an adjacent lamella that is facing the same direction is referred to herein as “interlayer spacing” or “periodic spacing”. Interlayer spacing between two lamellae is determined by (1) obtaining an out-of-plane X-ray scattering image of a coating, (2) determining the scattering vector (q) of the peak corresponding to the lamellar structure, and (3) using Bragg’s equation below, determine the interlayer spacing (d).
# Coating agents were applied to the surface of a plastic substrate, which acts as a hydrophilic surface when exposed to air. An X-ray scattering image of the applied coat was obtained to identify characteristics of the coating.
# Specifically, a coating agent of sorbitan monostearate (95 wt%) and sodium stearate (5 wt%) was applied to a substrate as a thin-film. The films were drop cast from a 30 g/L aqueous solution and dried at 40° C. for 4 hours. […] “LAM” refers to lamellar or bilayer morphology. […]
# California avocados = test: Respiration factor of coated California avocados (Example 11); assay type: in vivo, avocado; settings: 30 g/L sorbitan ester
# From the text: (§1) As used herein, the term “respiration rate” refers to the rate at which the product releases gas, such as CO2. This rate can be determined from the volume of gas (e.g., CO2) (at standard temperature and pressure) released per unit time per unit weight of the product. The respiration rate can be expressed as ml gas/kg·hour. The respiration rate of the product can be measured by placing the product in a closed container of known volume that is equipped with a sensor, such as a CO2 sensor, recording the gas concentration within the container as a function of time, and then calculating the rate of gas release required to obtain the measured concentration values.
# (§2) As used herein, the term “respiration factor” is defined as the ratio of the average gas diffusion (e.g., CO2 release) of uncoated produce (measured for a control group) to the average gas diffusion of the corresponding tested produce (e.g., coated produce) over a given time.
# FIG. 17 is a graph showing mass loss factors for California avocados. The Untreated group of avocadoes was not treated. A second group of avocados was treated with 15 g/L of Treatment C. A third group of avocados was treated with 30 g/L of Treatment C. A fourth group of avocados was treated with 30 g/L sorbitan monopalmitate (MP) (100 wt%). A fifth group of avocados was treated with a 30 g/L sorbitan monostearate (MS). […]
# unwaxed pixie oranges = test: Mass loss factor of coated unwaxed pixie oranges (Example 13); assay type: in vivo, orange; settings: 2 g/L sorbitan monolaurate added to 50 g/L 95/5 monostearate/sodium stearate, bowl dip, 70° C.
# Procedure: (§3) As used herein, the term “mass loss factor” is defined as the ratio of the average mass loss rate of uncoated produce (measured for a control group) to the average mass loss rate of the corresponding tested produce (e.g., coated produce) over a given time.
# FIG. 21 is a graph showing mass loss factors for unwaxed pixie oranges (“pixies”). One group of pixies was not treated. A second group of pixies was treated with 50 g/L of Treatment C. A third group of pixies was treated with 50 g/L of Treatment C and 2 g/L of a wetting agent (WAG). A fourth group of pixies was treated with 50 g/L of a 95/5 mixture of monostearate/sodium stearate and 2 g/L sorbitan monolaurate. The coatings were applied using a bowl dip method and were dried at a temperature of 70° C. […] The pixies were mostly dry (~80%) coming out of the heat tunnel.
# Mexican avocados [2] = test: Mass loss factor of coated Mexican avocados (Example 12); assay type: in vivo, avocado; settings: brush bed, dried 70° C., sorbitan monostearate as 94 wt% with 6 wt% sodium stearate
# Procedure: as §3
# FIG. 19 is a graph showing mass loss factors (MLF) for Mexican avocados. A first group of avocados was not treated. A second group of avocados was treated with 20 g/L of Treatment C. A third group of avocados was treated with 40 g/L of Treatment C. The monoglyceride coatings were mixed with a high shear mixer. A fourth group of avocados was treated with 20 g/L of a mixture of sorbitan monostearate (94 wt%) and sodium stearate (6 wt%). A fifth group of avocados was treated with 40 g/L of a mixture of sorbitan monostearate (94 wt%) and sodium stearate (6 wt%). The sorbitan monostearate coatings were mixed with blenders. The coatings were applied using a brush bed and were dried at a temperature of 70° C. […] The MLF of 20 g/L of […] monostearate/sodium stearate was 1.49 and the MLF of the 40 g/L 95/5 monostearate/sodium stearate was 2.24.
# Mexican avocados [3] = test: Respiration factor of coated Mexican avocados (Example 12); assay type: in vivo, avocado; settings: day 1
# From the text: as §1, §2
# FIG. 19 is a graph showing mass loss factors (MLF) for Mexican avocados. A first group of avocados was not treated. A second group of avocados was treated with 20 g/L of Treatment C. A third group of avocados was treated with 40 g/L of Treatment C. The monoglyceride coatings were mixed with a high shear mixer. A fourth group of avocados was treated with 20 g/L of a mixture of sorbitan monostearate (94 wt%) and sodium stearate (6 wt%). […]
Substance,periodicity of alternating bilayers [1] [nm],respiration factor compared with 95/5 monostearate/sodium stearate at 30 g/L (California avocados),mass loss factor increase compared to the untreated substrates (unwaxed pixie oranges) [times],MLF (mass loss factor) (Mexican avocados [2]; 20 g/L),MLF (mass loss factor) (Mexican avocados [2]; 40 g/L),RF (respiration factor) (Mexican avocados [3]; 20 g/L),RF (respiration factor) (Mexican avocados [3]; 40 g/L)
sorbitan monopalmitate,5.6,higher,,,,,
sorbitan monolaurate,,,3.56,,,,
sorbitan monostearate,5.5,comparable,,1.83,2.32,1.15,1.25

# Source: patent US20230072790A1, “COMPOUNDS AND FORMULATIONS FOR PROTECTIVE COATINGS” (Apeel Technology, Inc., priority 2021, published 2023)
